Tested on: KRAS PDC multicell spheroid viability
Assay: Anticancer human tumor 521955-158-R6-J3-PDC patient-derived pancreatic carcinoma cell line growth inhibition [KRAS2]
Settings: for IC50: curve of first compound; for viability, T/C: stronger effect = lower value
In short: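 KRAS-mutant tumor cells were grown as spheroids with HUVEC endothelial cells and human MSCs as stroma. Targeted agents were tested alone and with KRAS pathway inhibitors. Doses started at or near clinical Cmax, or 10 microM, descending half-log.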

[1] = second compound 0.1 µM, first compound 0.01 µM
[2] = second compound 0.1 µM, first compound 0.0316 µM
[3] = second compound 0.1 µM, first compound 0.1 µM
[4] = second compound 0.1 µM, first compound 0.316 µM
[5] = second compound 0.1 µM, first compound 1 µM
[6] = second compound 0.1 µM, first compound 3.16 µM
[7] = second compound 0.316 µM, first compound 0.01 µM
[8] = second compound 0.316 µM, first compound 0.0316 µM
[9] = second compound 0.316 µM, first compound 0.1 µM
[10] = second compound 0.316 µM, first compound 0.316 µM
[11] = second compound 0.316 µM, first compound 1 µM
[12] = second compound 0.316 µM, first compound 3.16 µM
[13] = second compound 1 µM, first compound 0.01 µM
[14] = second compound 1 µM, first compound 0.0316 µM
[15] = second compound 1 µM, first compound 0.1 µM
[16] = second compound 1 µM, first compound 0.316 µM
[17] = second compound 1 µM, first compound 1 µM
[18] = second compound 1 µM, first compound 3.16 µM
[19] = second compound 3.16 µM, first compound 0.01 µM
[20] = second compound 3.16 µM, first compound 0.0316 µM
[21] = second compound 3.16 µM, first compound 0.1 µM
[22] = second compound 3.16 µM, first compound 0.316 µM
[23] = second compound 3.16 µM, first compound 1 µM
[24] = second compound 3.16 µM, first compound 3.16 µM
[25] = second compound 10 µM, first compound 0.01 µM
[26] = second compound 10 µM, first compound 0.0316 µM
[27] = second compound 10 µM, first compound 0.1 µM
[28] = second compound 10 µM, first compound 0.316 µM
[29] = second compound 10 µM, first compound 1 µM
[30] = second compound 10 µM, first compound 3.16 µM
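Note: drug exposure lasted seven days.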
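Throughout, for viability, T/C: 100% = DMSO vehicle wells and lower means fewer viable cells.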

SMILES | IC50 (second compound 0.1 µM) | IC50 (second compound 0.316 µM) | IC50 (second compound 1 µM) | IC50 (second compound 3.16 µM) | IC50 (second compound 10 µM) | viability, T/C [1] | viability, T/C [2] | viability, T/C [3] | viability, T/C [4] | viability, T/C [5] | viability, T/C [6] | viability, T/C [7] | viability, T/C [8] | viability, T/C [9] | viability, T/C [14] | viability, T/C [15] | viability, T/C [20] | viability, T/C [21] | viability, T/C [26] | viability, T/C [27] | also measured
CC1COCCN1c1cc(-c2ccnn2C)c2ccnc(-c3ccn[nH]3)c2n1 (stereo not given) + CNCc1ccccc1-c1csc(C(C)Nc2nc(C)nc3cc(OC)c(OC)cc23)c1 | > 3.16 µM | > 3.16 µM | > 3.16 µM | < 0.01 µM | < 0.01 µM | 83.9% | 90.4% | 80.4% | 76.2% | 64.4% | 81.2% | 79.5% | 70.4% | 71% | 63.3% | 58.1% | 0.29% | 1.4% | 0.19% | 0.21% | viability, T/C [10]: 57.9%; viability, T/C [11]: 69.3%; viability, T/C [12]: 68.4%; viability, T/C [13]: 68.6%; viability, T/C [16]: 47.3%; viability, T/C [17]: 55.1%; viability, T/C [18]: 63.7%; viability, T/C [19]: 0.45%; viability, T/C [22]: 0.26%; viability, T/C [23]: 0.42%; viability, T/C [24]: 0.43%; viability, T/C [25]: 0.19%; viability, T/C [28]: 0.16%; viability, T/C [29]: 0.17%; viability, T/C [30]: 0.3%
CC1OCC2(CCN(c3cnc(Sc4ccnc(N)c4Cl)c(N)n3)CC2)C1N (stereo not given) + CNCc1ccccc1-c1csc(C(C)Nc2nc(C)nc3cc(OC)c(OC)cc23)c1 | > 10 µM | > 10 µM | > 10 µM | < 0.0316 µM | < 0.0316 µM | – | 83.1% | 73.2% | 73.5% | 81.8% | 105% | – | 83.7% | 80.3% | 67.3% | 67% | 0.42% | 0.24% | 0.23% | 0.26% | viability, T/C (second compound 0.1 µM, first compound 10 µM): 100%; viability, T/C [10]: 70%; viability, T/C [11]: 72.7%; viability, T/C [12]: 92.2%; viability, T/C (second compound 0.316 µM, first compound 10 µM): 105%; viability, T/C [16]: 66.5%; viability, T/C [17]: 72%; viability, T/C [18]: 90%; viability, T/C (second compound 1 µM, first compound 10 µM): 67.3%; viability, T/C [22]: 0.25%; viability, T/C [23]: 0.33%; viability, T/C [24]: 1.07%; viability, T/C (second compound 3.16 µM, first compound 10 µM): 0.41%; viability, T/C [28]: 0.26%; viability, T/C [29]: 0.17%; viability, T/C [30]: 0.22%; viability, T/C (second compound 10 µM, first compound 10 µM): 0.27%
CC(=O)OC12COC1CC(O)C1(C)C(=O)C(O)C3=C(C)C(OC(=O)C(O)C(NC(=O)OC(C)(C)C)c4ccccc4)CC(O)(C(OC(=O)c4ccccc4)C21)C3(C)C (stereo not given) + COc1cc2nc(C)nc(NC(C)c3cc(N)cc(C(F)(F)F)c3)c2cc1OC1CCOC1 | > 3.16 µM | > 3.16 µM | > 3.16 µM | > 3.16 µM | > 3.16 µM | 78.7% | 74.6% | 69.7% | 77.8% | 85.7% | 114% | 66.3% | 66.5% | 70.2% | 67.3% | 66.5% | 61.3% | 55.7% | 62.2% | 72.6% | viability, T/C [10]: 60.3%; viability, T/C [11]: 90.7%; viability, T/C [12]: 117%; viability, T/C [13]: 75.6%; viability, T/C [16]: 78.5%; viability, T/C [17]: 86.2%; viability, T/C [18]: 106%; viability, T/C [19]: 52.6%; viability, T/C [22]: 70%; viability, T/C [23]: 111%; viability, T/C [24]: 120%; viability, T/C [25]: 68.5%; viability, T/C [28]: 84.6%; viability, T/C [29]: 102%; viability, T/C [30]: 120%
CN(C)C/C=C/C(=O)Nc1cc2c(Nc3ccc(F)c(Cl)c3)ncnc2cc1O[C@H]1CCOC1 + COc1cc2nc(C)nc(NC(C)c3cc(N)cc(C(F)(F)F)c3)c2cc1OC1CCOC1 | > 0.1 µM | > 0.1 µM | > 0.1 µM | 0.00284 µM | 0.0032 µM | 61.2% | 54% | 55.5% | – | – | – | 65% | 54.7% | 53.2% | 56.1% | 48.6% | 44.4% | 45.5% | 32.8% | 25.4% | viability, T/C (second compound 0.1 µM, first compound 0.000316 µM): 89.3%; viability, T/C (second compound 0.1 µM, first compound 0.001 µM): 78.3%; viability, T/C (second compound 0.1 µM, first compound 0.00316 µM): 72.3%; viability, T/C (second compound 0.316 µM, first compound 0.000316 µM): 93%; viability, T/C (second compound 0.316 µM, first compound 0.001 µM): 106%; viability, T/C (second compound 0.316 µM, first compound 0.00316 µM): 78.5%; viability, T/C (second compound 1 µM, first compound 0.000316 µM): 105%; viability, T/C (second compound 1 µM, first compound 0.001 µM): 100%; viability, T/C (second compound 1 µM, first compound 0.00316 µM): 89.5%; viability, T/C [13]: 61.8%; viability, T/C (second compound 3.16 µM, first compound 0.000316 µM): 84%; viability, T/C (second compound 3.16 µM, first compound 0.001 µM): 78.2%; viability, T/C (second compound 3.16 µM, first compound 0.00316 µM): 46.9%; viability, T/C [19]: 51.1%; viability, T/C (second compound 10 µM, first compound 0.000316 µM): 59.8%; viability, T/C (second compound 10 µM, first compound 0.001 µM): 54.9%; viability, T/C (second compound 10 µM, first compound 0.00316 µM): 50.2%; viability, T/C [25]: 26.2%
